Values joined by “and” are separate entries in the source; they are usually repeats but may differ in a detail not shown here. Identical values can stand only once. Toxic doses and inconclusive results are not listed. The calls were made as follows: active = survival T/C of 150% or more; inactive = T/C below 125% in these data.
Tested on: CD2F1 mice, L1210 leukemia ip, survival T/C
Experiment: NCI In Vivo Anticancer Drug Screen. Data for tumor model L1210 Leukemia (intraperitoneal) in CD2F1 (CDF1) mice
Settings: higher = longer survival
Summary of the method: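 Ratio T/C, where T is the treated-group value and C the vehicle-dosed control value, from mice implanted with a transplantable tumor.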

[1] = endpoint: mean survival time, dose: 25.0 mg/kg/injection, schedule: Q01DX001 (ip), vehicle: saline with Tween-80
[2] = endpoint: mean survival time, dose: 100.0 mg/kg/injection, schedule: Q01DX001 (ip), vehicle: saline with Tween-80
[3] = endpoint: mean survival time, dose: 200.0 mg/kg/injection, schedule: Q01DX001 (ip), vehicle: saline with Tween-80
[4] = endpoint: mean survival time, dose: 400.0 mg/kg/injection, schedule: Q01DX001 (ip), vehicle: saline with Tween-80

Measured: T/C

S=C(N/N=C1\C=Cc2ccccc2C1)N/N=C1\C=Cc2ccccc2C1
inactive: endpoint: mean survival time, dose: 50.0 mg/kg/injection, schedule: Q04DX003 (ip), vehicle: saline 87 % of control | endpoint: mean survival time, dose: 100.0 mg/kg/injection, schedule: Q04DX003 (ip), vehicle: saline 93 % of control | endpoint: mean survival time, dose: 200.0 mg/kg/injection, schedule: Q04DX003 (ip), vehicle: saline 93 % of control

COc1cc2oc3c(C)c(=O)cc4oc(-c5ccccc5)cc(c2c2c1CCC(c1ccccc1)O2)c43 (centres undefined)
inactive: endpoint: median survival time, dose: 0.85 mg/kg/injection, schedule: Q01DX005 (ip), vehicle: Klucel (hydroxypropylcellulose) (HPC) 98 % of control | endpoint: median survival time, dose: 1.75 mg/kg/injection, schedule: Q01DX005 (ip), vehicle: Klucel (hydroxypropylcellulose) (HPC) 98 % of control | endpoint: median survival time, dose: 3.5 mg/kg/injection, schedule: Q01DX005 (ip), vehicle: Klucel (hydroxypropylcellulose) (HPC) 98 % of control and 102 % of control | endpoint: median survival time, dose: 7.0 mg/kg/injection, schedule: Q01DX005 (ip), vehicle: Klucel (hydroxypropylcellulose) (HPC) 100 % of control and 102 % of control | endpoint: median survival time, dose: 12.5 mg/kg/injection, schedule: Q01DX005 (ip), vehicle: saline with Tween-80 96 % of control | endpoint: median survival time, dose: 14.0 mg/kg/injection, schedule: Q01DX005 (ip), vehicle: Klucel (hydroxypropylcellulose) (HPC) 94 % of control and 96 % of control | endpoint: median survival time, dose: 25.0 mg/kg/injection, schedule: Q01DX005 (ip), vehicle: saline with Tween-80 95 % of control | endpoint: median survival time, dose: 28.0 mg/kg/injection, schedule: Q01DX005 (ip), vehicle: Klucel (hydroxypropylcellulose) (HPC) 98 % of control | endpoint: median survival time, dose: 50.0 mg/kg/injection, schedule: Q01DX005 (ip), vehicle: saline with Tween-80 96 % of control | endpoint: median survival time, dose: 56.0 mg/kg/injection, schedule: Q01DX005 (ip), vehicle: Klucel (hydroxypropylcellulose) (HPC) 101 % of control | endpoint: median survival time, dose: 100.0 mg/kg/injection, schedule: Q01DX005 (ip), vehicle: saline with Tween-80 91 % of control | endpoint: median survival time, dose: 200.0 mg/kg/injection, schedule: Q01DX005 (ip), vehicle: saline with Tween-80 95 % of control

O=S(=O)(O)C(Nc1ccccn1)c1ccccc1 (centres undefined)
inactive: [1] 98 % of control | endpoint: mean survival time, dose: 50.0 mg/kg/injection, schedule: Q01DX001 (ip), vehicle: saline with Tween-80 106 % of control | [2] 106 % of control

O=C(O)C[Se](=O)O
inactive: endpoint: mean survival time, dose: 12.5 mg/kg/injection, schedule: Q01DX001 (ip), vehicle: saline with Tween-80 91 % of control | [1] 91 % of control

Cn1c(=O)[nH]c2c(-c3ccccc3)n[nH]c2c1=O
inactive: endpoint: median survival time, dose: 25.0 mg/kg/injection, schedule: Q04DX003 (ip), vehicle: saline with Tween-80 90 % of control | endpoint: median survival time, dose: 100.0 mg/kg/injection, schedule: Q04DX003 (ip), vehicle: saline with Tween-80 90 % of control | endpoint: median survival time, dose: 200.0 mg/kg/injection, schedule: Q04DX003 (ip), vehicle: saline with Tween-80 90 % of control

O=C(O)C1C2CC(C1C(=O)O)C(C(=O)O)C2C(=O)O (centres undefined)
inactive: [2] 94 % of control | endpoint: mean survival time, dose: 100.0 mg/kg/injection, schedule: Q01DX009 (ip), vehicle: saline with Tween-80 87 % of control | [3] 88 % of control | endpoint: mean survival time, dose: 200.0 mg/kg/injection, schedule: Q01DX009 (ip), vehicle: saline with Tween-80 87 % of control | [4] 95 % of control

OC1=C2CCCCCC2=[N+]2CCCCC2C1 (centres undefined)
inactive: endpoint: mean survival time, dose: 100.0 mg/kg/injection, schedule: Q04DX003 (ip), vehicle: saline with Tween-80 95 % of control | endpoint: mean survival time, dose: 200.0 mg/kg/injection, schedule: Q04DX003 (ip), vehicle: saline with Tween-80 95 % of control

[Cl][Pd][Cl]
inactive: endpoint: mean survival time, dose: 12.5 mg/kg/injection, schedule: Q01DX009 (ip), vehicle: saline sonified 95 % of control | endpoint: mean survival time, dose: 12.5 mg/kg/injection, schedule: Q04DX003 (ip), vehicle: saline with Tween-80 107 % of control | endpoint: mean survival time, dose: 25.0 mg/kg/injection, schedule: Q04DX003 (ip), vehicle: saline with Tween-80 103 % of control | endpoint: mean survival time, dose: 50.0 mg/kg/injection, schedule: Q04DX003 (ip), vehicle: saline with Tween-80 91 % of control

O=S(=O)(F)c1ccc(Cl)c(Cl)c1S
inactive: endpoint: mean survival time, dose: 100.0 mg/kg/injection, schedule: Q04DX002 (ip), vehicle: saline with Tween-80 98 % of control | endpoint: mean survival time, dose: 200.0 mg/kg/injection, schedule: Q04DX002 (ip), vehicle: saline with Tween-80 98 % of control

O=C(COCC(=O)N/N=C/c1ccc(Cl)c(Cl)c1)N/N=C/c1ccc(Cl)c(Cl)c1
inactive: [2] 94 % of control | [3] 94 % of control | [4] 96 % of control
